Source: patent US7795305B2, “CDDO-compounds and combination therapies thereof” (Board of Regents, The University of Texas System, priority 2000, dated 2010)

How the values were obtained:
Format in all cases: cell-based, human
NB4 cells = assay: Annexin V staining
Procedure: (§1) Annexin V staining. Cells were washed in phosphate-buffered saline (PBS) and resuspended in 100 μl of binding buffer containing Annexin V (Roche Diagnostic Corporation, Indianapolis, Ind.). Cells were analyzed by flow cytometry after the addition of propidium iodide (PI). Annexin V binds to those cells that express phosphatidylserine on the outer layer of the cell membrane, and PI stains the cellular DNA of those cells with a compromised cell membrane. This allows for live cells (unstained with either fluorochrome) to be discriminated from apoptotic cells (stained only with annexin V) and necrotic cells (stained with both annexin and PI).
Mechanisms of CDDO-induced apoptosis in leukemia cell lines and in primary AML samples were also determined. The involvement of the death receptor/Fas pathway was studied in NB4 cells. Treatment with 0.5 μM CDDO induced cell surface Fas/CD95 expression at 48 hours (MFI 34.8 vs 24.8 in DMSO-treated cells and 26 in untreated control). At this concentration, 22.3% of cells were annexin V positive compared with 11.4% in DMSO-controls. At 1 μM, 56.3% of cells were apoptotic. Similarly, 1 μM CDDO induced Fas expression in 7/12 AML CD34+ cells (MFI, 22.3±3.5 in DMSO-controls, 40±4.3 in CDDO-treated CD34+ cells, p<0.01).

U937 cells = assay: Apoptotic sub-G1 cells; conditions: 1 μM, 48 hrs
Procedure: Cell kinetic and DNA fragmentation studies. The cell cycle kinetics was determined by staining cells with acridine orange for cellular DNA and RNA content followed by flow cytometeric analysis as described. Samples were measured in a FACScan flow cytometer (Becton Dickinson, San Jose, Calif.) using the 488-nm line of a […] argon laser and filter settings for green (530 nm) (DNA) and red (585 nm) (RNA) fluorescence. Ten thousand events were stored in list mode for analysis. The percentage of cells in the “sub G1 peak” defined the proportion of apoptotic cells in the tested populations. […] Cell-cycle kinetics was analyzed using ModFit software (Verity Software House, Inc., Topsham, Me.).

KG-1 = assay: Growth inhibition of leukemic cell line
From the text: (§2) Suspension culture of leukemic cells.

NB4 = assay: Growth inhibition of leukemic cell line
From the text: as §2

CML-blast crisis samples = assay: Apoptosis and differentiation in CML-blast crisis samples in vitro
From the text: Subjects. Samples of bone marrow or peripheral blood were obtained for in vitro studies from patients with newly diagnosed or recurrent AML with high (>70%) blast count and from patients with myeloid transformation of chronic myeloid leukemia (CML). Informed consent was obtained following institutional guidelines. Mononuclear cells were separated by Ficoll-Hypaque (Sigma Chemical Co) density-gradient centrifugation.
CDDO-Me. In primary AML, CDDO-Me induced apoptotic cell death in a dose-dependent fashion as determined by DNA flow cytometry (subG1): at 1 μM CDDO-Me, apoptosis was induced in 5 of 6 AML samples in vitro, and 5 μM induced apoptosis in 6 of 6 samples. More than 90% apoptotic cells were detected in 4/6 samples following exposure to 5 μM of CDDO-Me (FIG. 21A). At lower concentrations, CDDO-Me induced a dose-dependent increase in the percentage of the apoptotic cells in 4/4 samples tested (FIG. 21B). The paired mean difference between the CDDO-Me 0.1 μM and DMSO control is 26.9%±10.8% (CDDO-Me-DMSO, mean±SEM); and the paired mean difference between the CDDO-Me 0.5 μM and DMSO is 43.2%±5.2%. […] Effects of CDDO-Me were also tested on clonogenic AML cells. […] In contrast, 79±5.6% and 63.4±1.1% CFU-GM generated from normal CD34* cells were detected after 0.1 and 0.5 μM of CDDO-Me treatment (n=3).

U937 and HL-60 cells = assay: Phi-Phi-Lux cleavage with caspase-3 inhibitor Z-DEVD-fmk pre-treatment
Procedure: Detection of active caspases. The cell-permeable fluorogenic substrate Phi-Phi-Lux-G1D2 was administered to monitor caspase activity according to the manufacturer's recommendations (OncoImmunin, Inc, Kensington, Md.). Briefly, 10^6 cells were resuspended in 5 μL of substrate solution and incubated for 1 hour at 37° C. in the dark. After incubation, cells were washed, and the fluorescence emission was determined using the FL-1 channel of a Becton Dickinson FACScan flow cytometer.
CDDO-Me. […] Effects of CDDO-Me on the cleavage of caspase-3 were analyzed utilizing the fluorogenic substrate of caspase-3 Phi-Phi-Lux.

HL-60 cells [1] = assay: Annexin V staining; conditions: 0.1 μM CDDO-Me alone or combined with 1 μM ATRA
Procedure: as §1
CDDO-Me. CDDO-Me and retinoids synergistically decrease viability and induce differentiation in leukemic cell lines. The inventors tested the Effect of CDDO-Me/ATRA combinations in different leukemic cell lines. […] This was confirmed in HL-60 cells by annexin V staining (17.9 vs 30% positive cells when 0.1 μM of CDDO-Me was combined with 1 μM ATRA). In primary AML, ATRA enhanced CDDO-Me-induced apoptosis in 3/8 samples tested (an example of subG1 flow cytometry in AML sample shown in FIG. 32).

HL-60 cells [2] = assay: CDDO-Me plus LG-100268 in HL-60 cells (Table 6); set-up: unit not given here; conditions: 24 hrs; CDDO-Me 0.1 μM, no ligand
Procedure: Finally, the inventors examined if CDDO-Me combined with ATRA would enhance differentiation. HL-60 cells were cultured with of 0.1 μM of CDDO-Me for 72 hrs, alone or in combination with 1 μM ATRA. […] At 48 hrs, 67.4% in CDDO-Me-treated cells and 63.5% in ATRA-treated cells were CD11b+ (compared with 40% in DMSO controls), while 85% of cells were positive when both compounds were given simultaneously. These studies were repeated 3 times and yielded essentially identical results. Next, combined treatment with CDDO-Me and RXR-specific ligand were tested for potentiation of anti-leukemic effects. RXR-specific ligand LG-100268 (Ligand Pharmaceuticals) used at 10, 100 nm and 1 μM enhanced killing of HL-60 cells in a dose-dependent manner (Table 6).

Row | Structure (SMILES) | annexin V positive cells (NB4 cells; 0.5 μM (11.4% in DMSO-controls)) [%] | apoptotic cells (NB4 cells; 1 μM) [%] | apoptotic sub-G1 cells (U937 cells) [%] | IC50 (KG-1) [nM] | IC50 (NB4) [nM] | CML-blast crisis samples in which apoptosis was induced (CML-blast crisis samples; 1 μM) | CML-blast crisis samples in which apoptosis was induced (CML-blast crisis samples; 5 μM) | cleavage of Phi-Phi-Lux (U937 and HL-60 cells; CDDO-Me without inhibitor) [%] | cleavage of Phi-Phi-Lux (U937 and HL-60 cells; pre-treatment with 25 μM Z-DEVD-fmk for 1 hour) [%] | annexin V positive cells (HL-60 cells [1]) [%] | Table 6 value: CDDO-Me-induced monocytic differentiation in HL-60 cells (HL-60 cells [2])
1 | CC1(C)CCC2(C(=O)O)CCC3(C)C(C(=O)C=C4C5(C)C=C(C#N)C(=O)C(C)(C)C5CCC43C)C2C1 (centres unmarked) [CDDO, 2-cyano-3,12-dioxoolen-1,9-dien-28-oic acid] | 22.3 | 56.3 | 69.4 | – | – | – | – | – | – | – | –
2 | COC(=O)[C@]12CCC(C)(C)C[C@H]1[C@H]1C(=O)C=C3[C@@]4(C)C=C(C#N)C(=O)C(C)(C)[C@@H]4CC[C@@]3(C)[C@]1(C)CC2 [CDDO-Me] | – | – | – | 400 | 270 | 3 of 4 | 4 of 4 | 15.1 | 2.7 | 17.9 | 22.4
